≈ marks a conversion by molar mass, not a printed value.
Assays:
[1] = tested on: L1210 murine leukemia cells; assay: evaluation of cytotoxic activity, method (a); format: cell-based; settings: Mus musculus, 48 h at 37° C., 5% CO2, dose causing 50% inhibition of cell growth relative to untreated controls, 0.5% DMSO
Protocol: As an example, the activity of (E)-9-(2-methoxycarbonyl-ethenyl) camptothecin (internal code FCE 28681) and 9-(2-methoxycarbonyl-ethyl) camptothecin (internal code FCE 29559) were tested according to the following method (a).
The compounds were dissolved in dimethylsulfoxide (DMSO) at a final concentration of 0.5%.
Method (a): evaluation of cytotoxic activity
L1210 murine leukemia cells were grown in vitro as a floated cells in RPMI 1640 medium supplemented with 10% fetal calf serum, 1% L-glutamine 200 mM, 1% of B-mercaptoethanol 1 mM, 100 UI/ml penicillin and 100 μg streptomycin. For assaying the cytotoxic activity, exponentially growing cells were seeded at the concentration of 5×10^4 cells/ml and exposed to graded doses of the compounds under evaluation for 48 h at 37° C. in an humidified atmosphere of 5% CO2. The number of surviving cells was determined with a Coulter Counter; results are expressed as IC50 (dose causing 50% inhibition of cell growth in treated cultures relative to untreated controls after 48 h treatment) in this assay, (E)-9-(2-methoxycarbonyl-ethenyl) camptothecin (internal code FCE 28681) and 9-(2-methoxycarbonyl-ethyl) camptothecin (internal code FCE 29559) were tested and the obtained results are reported on Table 1 below.

human albumin = settings: biologically relevant levels of human albumin; cited from earlier work
[2] = human plasma, 2 hours after drug addition; cited from earlier work
cancer cells = settings: both in vitro and in vivo; cited from earlier work
Topoisomerase I = settings: cited from earlier work

SMILES | IC50 [1] [ng/mL] | half-life of the biologically active form (human albumin) | percentage of drug converted to camptothecin carboxylate [2] | anticancer activity of the lactone versus the carboxylate form (cancer cells) | antitumor activity by inhibition of Topoisomerase I (Topoisomerase I)
CC[C@@]1(O)C(=O)OCc2c1cc1n(c2=O)Cc2cc3c(/C=C/C(=O)OC)cccc3nc2-1 [FCE 28681, (E)-9-(2-methoxycarbonyl-ethenyl)camptothecin] | 3.3 ± 1.8 (≈ 7.63 nM) | – | – | – | –
CC[C@@]1(O)C(=O)OCc2c1cc1n(c2=O)Cc2cc3c(CCC(=O)OC)cccc3nc2-1 [FCE 29559, 9-(2-methoxycarbonyl-ethyl)camptothecin] | 2.7 ± 0.5 (≈ 6.21 nM) | – | – | – | –
CC[C@@]1(O)C(=O)OCc2c1cc1n(c2=O)Cc2cc3ccccc3nc2-1 [camptothecin] | – | about 12 min. | greater than 99% | significantly greater for the lactone versus the carboxylate form | potent antitumor activity
